What was measured:
[1] = target: T1, MAO-B (Rattus norvegicus, UniProt P19643); assay: In vitro inhibition of monoamine oxidase B (substrate phenylethylamine, PEA; mitochondrial suspension of rat brain); format: biochemical; conditions: for IC50: PEA substrate, 20 min preincubation, reaction 10 min
T1 construct: using, as enzyme source, a mitochrondrial suspension of the brain of a rat; from tissue; host or cells: rat brain, mitochondrial suspension
T1 sequence (P19643 1-520): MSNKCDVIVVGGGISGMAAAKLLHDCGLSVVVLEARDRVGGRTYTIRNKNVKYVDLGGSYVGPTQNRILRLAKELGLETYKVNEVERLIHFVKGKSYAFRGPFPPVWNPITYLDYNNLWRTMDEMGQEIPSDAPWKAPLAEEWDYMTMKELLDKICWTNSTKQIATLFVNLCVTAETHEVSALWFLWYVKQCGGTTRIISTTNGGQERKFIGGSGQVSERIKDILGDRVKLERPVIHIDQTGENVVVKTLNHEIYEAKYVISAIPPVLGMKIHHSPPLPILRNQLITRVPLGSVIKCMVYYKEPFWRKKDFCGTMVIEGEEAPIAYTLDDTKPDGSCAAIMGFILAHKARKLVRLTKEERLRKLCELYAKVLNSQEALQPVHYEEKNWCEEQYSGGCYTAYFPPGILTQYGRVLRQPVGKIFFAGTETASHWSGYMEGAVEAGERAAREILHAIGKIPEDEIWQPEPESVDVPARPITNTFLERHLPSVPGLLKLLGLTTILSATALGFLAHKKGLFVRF
Method: The quantitative determination of the MAO, activity was made up by using, as enzyme source, a mitochrondrial suspension of the brain of a rat. The standard determination consists in preincubating the enzyme for 20 minutes in the absence then in the presence of the inhibitors. […] The operating method used is that of the protocol of P. C. Baker, Dev. Biol. 14, 267 (1966). The results expressed in terms of CI50 (50% inhibiting concentration) obtained with a certain number of derivatives (I) are shown in tables VII and VIII hereafter.

[2] = target: T2, MAO-A (Rattus norvegicus, UniProt P21396); assay: In vitro inhibition of monoamine oxidase A (substrate serotonine, 5-HT; mitochondrial suspension of rat brain); format: biochemical; conditions: 5-HT substrate; for inhibition at 1 µM: read-out: % of inhibition of MAO-A at a concentration of 10^-6 M, Table VIII, at a concentration of 10^-6 M; for IC50: Table VII, 20 min preincubation, reaction 40 min
T2 construct: using, as enzyme source, a mitochrondrial suspension of the brain of a rat; from tissue; host or cells: rat brain, mitochondrial suspension
T2 sequence (P21396 1-526): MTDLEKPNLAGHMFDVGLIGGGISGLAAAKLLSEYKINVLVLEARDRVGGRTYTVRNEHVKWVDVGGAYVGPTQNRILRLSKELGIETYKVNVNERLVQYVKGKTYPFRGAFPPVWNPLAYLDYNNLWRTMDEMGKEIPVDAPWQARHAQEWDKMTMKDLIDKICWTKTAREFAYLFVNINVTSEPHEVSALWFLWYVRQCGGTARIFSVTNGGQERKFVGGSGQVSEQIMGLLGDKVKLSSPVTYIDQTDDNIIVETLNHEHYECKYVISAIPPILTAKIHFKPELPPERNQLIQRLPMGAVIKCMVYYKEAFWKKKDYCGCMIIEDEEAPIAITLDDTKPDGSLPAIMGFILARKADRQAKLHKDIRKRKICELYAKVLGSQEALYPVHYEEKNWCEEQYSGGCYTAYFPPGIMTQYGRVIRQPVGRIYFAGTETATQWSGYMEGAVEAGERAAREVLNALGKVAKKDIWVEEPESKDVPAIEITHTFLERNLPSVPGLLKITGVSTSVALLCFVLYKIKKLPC
Method: The quantitative determination of the MAO, activity was made up by using, as enzyme source, a mitochrondrial suspension of the brain of a rat. The standard determination consists in preincubating the enzyme for 20 minutes in the absence then in the presence of the inhibitors. The activities are determined by using respectively serotonine (5-HT) and phenylethylamine (PEA) as substrates of the MAO-A and of MAO-B, the reaction times being 40 minutes with 5-HT and 10 minutes with PEA. The operating method used is that of the protocol of P. C. Baker, Dev. Biol. 14, 267 (1966).
The results expressed in terms of CI50 (50% inhibiting concentration) obtained with a certain number of derivatives (I) are shown in tables VII and VIII hereafter.

[3] = test system: mice; conditions: mouse, in vivo, 1500 mg/kg

Compound | IC50 ([1]; Table VII) [nM] | inhibition at 1 µM [2] [%] | IC50 ([1]; Table VIII) [nM] | other results
Cc1ccc(COc2ccc(-c3nnn(CCC#N)n3)cc2)cc1 [compound 32] | 570 |  |  | 
N#CCn1nnc(-c2ccc(OCc3ccccc3)cc2)n1 [compound 29] |  | 3 | 100 | 
N#CCCCCn1nnc(-c2ccccc2)n1 [5-phenyl 2-tetrazole valeronitrile, reference compound] |  |  |  | pharmacological activity: selective inhibition of MAO-B [1]: selective inhibitiopn of the monoamine oxidase of type B (MAO-B)
COCn1nnc(-c2ccc(OCc3ccccc3)cc2)n1 [compound 30] | 1600 |  |  | 
N#CCCCCCCn1nnc(-c2ccc(-c3ccccc3)cc2)n1 [compound 16] | 5400 |  |  | IC50 [2]: 46000 nM
OCCn1nnc(-c2ccc(OCc3cccc(Cl)c3)cc2)n1 [compound 19] |  |  |  | toxicity after oral administration [3]: no toxicity was observed
OCCCCCCn1nnc(-c2ccc(-c3ccccc3)cc2)n1 [compound 27] | 16400 |  |  | IC50 [2]: 80000 nM
OCCn1nnc(-c2ccc(OCc3ccc(Cl)cc3)cc2)n1 [compound 20] | 8 |  |  | IC50 [2]: 60000 nM
N#CCCCn1nnc(-c2ccc(-c3ccccc3)cc2)n1 [compound 14] | 1200 |  |  | IC50 [2]: 9600 nM
OCCn1nnc(-c2ccc(OCc3ccccc3)cc2)n1 [compound 17] |  |  |  | toxicity after oral administration [3]: no toxicity was observed
OCCn1nnc(-c2ccc(OCc3ccc(Cl)c(Cl)c3)cc2)n1 [compound 23] | 24 |  |  | IC50 [2]: 140000 nM
N#CCCn1nnc(-c2ccc(OCc3ccccc3)cc2)n1 [Code No. 7] | 2.3 |  |  | IC50 [2]: 86000 nM; toxicity after oral administration [3]: no toxicity was observed
Cc1ccc(COc2ccc(-c3nnn(CCO)n3)cc2)cc1 [compound 33] |  | 0 | 8000 | 
Cc1cccc(COc2ccc(-c3nnn(CCO)n3)cc2)c1 [compound 36] |  | 2 | 300 | 
Cc1ccc(COc2ccc(-c3nnn(CC#N)n3)cc2)cc1 [compound 31] |  |  | 1600 | 
OCCn1nnc(-c2ccc(OCc3ccccc3Cl)cc2)n1 [compound 18] | 5.5 |  |  | IC50 [2]: 88000 nM
N#CCCn1nnc(-c2ccc(OCc3cccc(Cl)c3)cc2)n1 [Code No. 1, 5-[4-(3-chlorobenzyloxy)phenyl] 2-tetrazole propanenitrile] | 2.2 |  |  | IC50 [2]: 150000 nM; toxicity after oral administration [3]: no toxicity was observed
N#CCCCn1nnc(-c2ccccc2)n1 [5-phenyl 2-tetrazole butyronitrile, reference compound] |  |  |  | pharmacological activity: selective inhibition of MAO-B [1]: selective inhibitiopn of the monoamine oxidase of type B (MAO-B)
Cc1cccc(COc2ccc(-c3nnn(CCC#N)n3)cc2)c1 [compound 35] |  | 5 | 200 | 
N#CCCn1nnc(-c2ccc(-c3ccccc3)cc2)n1 [compound 13] |  |  |  | IC50 [2]: 7800 nM

Second part, led by results:

IC50 ([1]; Table VII) [nM] | inhibition at 1 µM [2] [%] | IC50 ([1]; Table VIII) [nM] | Compound | other results
 | 15 | 280 | CN(C)CCn1nnc(-c2ccc(OCc3ccccc3)cc2)n1 [compound 64] | 
 | 3 | 290 | Cc1ccccc1COc1ccc(-c2nnn(CCO)n2)cc1 [compound 39] | 
6.4 |  |  | N#CCCn1nc(-c2ccc(OCc3ccccc3)cc2)oc1=O [compound 54] | 
 | 3.7 | 1500 | CC(=O)NCCn1nnc(-c2ccc(OCc3ccccc3)cc2)n1 [compound 66] | 
 | 2 | 210 | N#CCCn1nnc(-c2ccc(OCc3ccc(F)cc3)cc2)n1 [compound 47] | 
 | 2 | 270 | OCCn1nnc(-c2ccc(OCc3ccc(F)cc3)cc2)n1 [compound 48] | 
 | 15 | 24 | N#CCn1nnnc1-c1ccc(OCc2ccc(F)cc2)cc1 [compound 52] | 
16 |  |  | N#CCCn1nc(-c2ccc(OCc3ccccc3)cc2)sc1=O [compound 56] | 
 | 6 | 70 | NCCn1nnc(-c2ccc(OCc3ccccc3)cc2)n1 [compound 68] | 
 | 6 | 110 | Cc1ccccc1COc1ccc(-c2nnn(CCC#N)n2)cc1 [compound 38] | 
 | 10 | 160 | Cc1ccccc1COc1ccc(-c2nnn(CC#N)n2)cc1 [compound 37] | 
 | 17 | 480 | Cc1ccccc1COc1ccc(-c2nnnn2CCC#N)cc1 [compound 60] | 
 | 12 | 15 | Cc1ccc(COc2ccc(-c3nnnn3CC#N)cc2)cc1 [compound 50] | 
62 |  |  | N#CCCn1nc(-c2ccc(OCc3ccccc3)cc2)sc1=S [compound 57] | 
 | 7 | 800 | COc1cccc(COc2ccc(-c3nnn(CCO)n3)cc2)c1 [compound 45] | 
 | 3 | 360 | OCCn1nnnc1-c1ccc(OCc2ccc(F)cc2)cc1 [compound 53] | 
890 |  | 900 | COc1ccc(COc2ccc(-c3nnnn3CCO)cc2)cc1 [compound 51] | 
 | 9 | 3400 | COc1ccc(COc2ccc(-c3nnn(CCC#N)n3)cc2)cc1 [compound 41] | 
 | 4 | 90 | BrCCn1nnc(-c2ccc(OCc3ccccc3)cc2)n1 [compound 65] | 
 | 0 | 400 | COc1cccc(COc2ccc(-c3nnn(CCC#N)n3)cc2)c1 [compound 44] | 
 | 1 | 270 | Cc1cccc(COc2ccc(-c3nnnn3CCC#N)cc2)c1 [compound 61] | 
4700 |  |  | COc1ccc(COc2ccc(-c3nnn(CCO)n3)cc2)cc1 [compound 42] | 
9.3 |  |  | N#CCCn1nc(-c2ccc(OCc3ccccc3)cc2)oc1=S [compound 55] | 
 | 6 | 170 | N#CCn1nnc(-c2ccc(OCc3ccc(F)cc3)cc2)n1 [compound 46] | 
 | 4 | 67 | N#CCn1nnnc1-c1ccc(OCc2ccccc2)cc1 [compound 59] | 
 | 3 | 3600 | OCCn1nnnc1-c1ccc(OCc2ccccc2I)cc1 [compound 58] | 

From US5100910A, “Aryl substituted tetrazole derivatives, and application thereof in therapeutics” (Delalande S.A., priority 1988, dated 1992)
